Where two headings read alike, the source gives them in different places.
How the values were obtained:
[1] = molecular target: T1, microsomal NMT of CEM cells (Homo sapiens, UniProt P30419); test: Inhibition of the myristoylation of a gag-derived peptide of HIV-1 (subtype BRU), microsomal fraction of CEM cells; format: biochemical; conditions: 20-AA p18 peptide of HIV-1 (subtype BRU), 30 minutes at 37° C., read-out: IC50 during incubation with the microsomal fraction
T1 construct: The pellet (microsomes) and the supernatant (cytosol) are recovered independently and then frozen; endogenous in cells; host or cells: CEM immortalized T lymphocytes, microsomal pellet (105,000 g), treated with Triton 770
T1 sequence (P30419 1-496): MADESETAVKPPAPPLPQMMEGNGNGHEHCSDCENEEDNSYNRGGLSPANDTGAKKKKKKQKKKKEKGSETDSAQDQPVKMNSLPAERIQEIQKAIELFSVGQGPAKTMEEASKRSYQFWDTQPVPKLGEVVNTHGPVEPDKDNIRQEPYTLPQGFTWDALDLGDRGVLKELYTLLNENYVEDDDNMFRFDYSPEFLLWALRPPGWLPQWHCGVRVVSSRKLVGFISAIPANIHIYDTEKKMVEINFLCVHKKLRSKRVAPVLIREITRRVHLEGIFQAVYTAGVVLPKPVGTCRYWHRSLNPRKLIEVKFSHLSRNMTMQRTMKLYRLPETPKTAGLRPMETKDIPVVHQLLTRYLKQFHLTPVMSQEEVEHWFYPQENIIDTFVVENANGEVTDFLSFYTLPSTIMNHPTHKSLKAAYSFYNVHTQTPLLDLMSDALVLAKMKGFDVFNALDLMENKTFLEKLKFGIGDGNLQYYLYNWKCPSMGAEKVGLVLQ
Procedure: Immortalized T lymphocytes (CEM) are mass- cultured as described in Example 57, and then harvested by centrifugation and washed in PBS.
These cells are sonicated (3 brief periods of 10 seconds) and then homogenized in a glass/glass Potter.
This homogenate, in which all the cells have been opened (checked under a microscope), is subjected to centrifugation for 1 h 10) at 105,000 g. The pellet (microsomes) and the supernatant (cytosol) are recovered independently and then frozen.
The NMT activity is then measured following the procedure of Towler and Glaser but stopping the reaction with […] of acetonitrile in order to avoid precipitation of the myristoylated peptide. This 20-AA peptide: NH2^[…] COOH, is derived from p18 of the HIV-1 virus (subtype BRU).
These experimentations are carried out using a cytosolic (40 μl) or microsomal (20 μl treated with 4 μl of 10% Triton 770) source of CEM cells in the presence of increasing concentrations of the compounds of the invention (1 to 1,000 μM, final). The samples, incubated for 30 minutes at 37° C. and stopped with 200 μl of acetonitrile, are then analyzed by HPLC and the myristoylation of p18 quantified.

[2] = molecular target: T2, cytosolic NMT (N-myristoyltransferase) of L1210 cells (Mus musculus, UniProt O70310); test: Inhibition of the cytosolic NMT activity of cancerous L1210 cells; format: biochemical, murine
T2 construct: The supernatant is then used as a source of NMT; endogenous in cells; host or cells: L1210 murine leukemia cells, cytosol (105,000 g supernatant)
T2 sequence (O70310 1-496): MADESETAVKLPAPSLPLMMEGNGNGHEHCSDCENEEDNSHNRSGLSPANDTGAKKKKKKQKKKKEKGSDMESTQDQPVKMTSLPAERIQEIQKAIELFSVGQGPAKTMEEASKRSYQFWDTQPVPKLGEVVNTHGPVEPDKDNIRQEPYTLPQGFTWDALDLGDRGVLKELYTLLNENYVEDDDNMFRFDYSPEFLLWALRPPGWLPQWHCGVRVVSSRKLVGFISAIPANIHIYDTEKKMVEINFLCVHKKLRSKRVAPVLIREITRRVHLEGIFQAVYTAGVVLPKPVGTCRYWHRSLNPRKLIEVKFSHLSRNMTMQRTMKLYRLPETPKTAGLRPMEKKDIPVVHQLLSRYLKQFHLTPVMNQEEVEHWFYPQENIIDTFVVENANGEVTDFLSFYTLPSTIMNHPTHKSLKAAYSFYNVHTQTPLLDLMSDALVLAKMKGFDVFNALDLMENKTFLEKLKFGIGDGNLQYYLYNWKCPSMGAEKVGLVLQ
Procedure: Mass-cultured L1210 cells (murine leukemia) are used as a source of […].
They are cultured in RPMI 1640 supplemented with 50 U/ml of penicillin, […] of streptomycin, 2 mM of glutamine, 10 mM HEPES and 10% of fetal calf serum, maintained in a 5% CO2 /95% air atmosphere and at 37° C.
They are harvested and then washed in PBS by centrifuging at low speed. The final cell pellet is resuspended in a 50 mM HEPES buffer, pH 7.4, containing 2 mM EGTA, 1 mM DTT and 1 mM PMSF. The cells are opened by sonication at 4° C. and homogenized by a to and fro movement in a glass/glass Potter. The cell homogenate is then centrifuged at low speed (10,000 rpm, 10 minutes) in order to precipitate the cell debris and the supernatant is subjected to ultracentrifugation at 105,000 g for 1 hour.
The supernatant is then used as a source of NMT. The measurement of activity is carried out according to the method described by Towler and Glazer (PNAS, 1986, 83, 2812) using as substrate peptide either the peptide derived from the NH2 terminal of the pp60src oncogene product: GSSKSKPKDP (DP), or the peptide derived from the NH2 terminal of the gag product, a structural protein of the Maloney murine leucemic virus: GQTVTTPL (T3) at a final concentration of 0.3 mM.

HL60 cells = test: Differentiation of cultured HL60 cells; format: cell-based, human
Procedure: Cultured HL60 cells are treated for 6 days with the compounds dissolved in a minimum of methanol at 9 different concentrations. The doses chosen encompass the IC50 determined beforehand using the MTT test (Carmichael et al., Cancer Res., 1986, 47, 936).
The cells are washed (450 μl), resuspended in the same volume of complete medium and incubated for 1 hour at 37° C. in the presence of 7 ug/ml of DNA-specific fluorochrome.
The measurements, which are carried out by means of a laser cytometer, make it possible to estimate the percentage of cells accumulated, and therefore differentiated, in the G0 and G1 phase of the cell cycle.

HIV-1 virus = test: Protective effect on CEM cells against infection by the HIV virus; format: cell-based
Description: The method used is described by […] et al. (J. Natl. Cancer Inst., 1989, 81, 577).

[3] = Toxicity on CEM cells in the HIV protection test; format: cell-based; conditions: human, method of WEISLOW et al., unit printed m, read-out: toxicity (IC50)
Description: The method used is described by WEISLOW et al. (J. Natl. Cancer Inst., 1989, 81, 577).

[4] = HL60 cells, 6 days, cells accumulated in G0 and G1 phase, laser cytometer

SMILES | IC50 [1] [µM] | IC50 ([2]; cytosolic NMT of L1210 cells, substrate peptide DP (pp60src) or T3 (gag), 0.3 mM, read-out: IC50) [µM] | doses to which the marked differentiating effect can extend (HL60 cells; [4]) | IC50 [2] [µM] | doses to which the marked differentiating effect can extend (HL60 cells; 144 h) | EC50 (HIV-1 virus; Human immunodeficiency virus 1, CCRF-CEM, HIV infection, method of WEISLOW et al.) [µM] | therapeutic index (HIV-1 virus; toxicity IC50 / protective EC50) | CC50 [3] [µM]
CCCCCCCCCCCCCC(=O)N1Cc2ccccc2C[C@H]1C(=O)O [Example 1, N-Myristoyl-3-(S)-carboxy-(1,2,3,4)-tetrahydroisoquinoline] | 100 | 0.18 | below 50 ug/ml |  |  |  |  | 
CCCCCCCCCCCCCC(=O)NC(Cc1ccccc1)P(=O)(O)OCC (stereo not drawn) [Example 16, ETHYL 1-MYRISTOYLAMINO-2-[…]] |  |  |  | 2 | below 50 ug/ml |  |  | 
COCCCCCCCCCCCC(=O)N[C@@H](Cc1ccccc1)C(=O)O [Example 49, N-(12-METHOXYLAUROYL)-(S)-PHENYLALANINE] |  |  | below 50 ug/ml |  |  | 10 | 20 | 200

Reference: patent publication US5266576A, “N-myristoyl transferase inhibitors” (Adir et Compagnie, priority 1991, dated 1993)
